Results from patent US10745448B2, “Antiviral peptide and use therefor” (priority 2017, dated 2020).
Where “and” joins values, the source holds several entries; their conditions need not be identical. Identical values can stand only once. No end group written: not given here.

System: vesicular stomatitis Indiana virus (Indiana VSV)
Assay type: cell-based

Substance	Virus infectivity (virus titer)
MLSYLIFALAVSPILGKKRTLRKNDRKKR-CONH2 (MLSYLIFALAVSPILGKKRTLRKNDRKKR-NH2) [Sample 1]	9.11 log10 PFU/mL and 5.90 log10 PFU/mL
MKTIIALSYIFCLALGKKRTLRKNDRKKR-CONH2 (MKTIIALSYIFCLALGKKRTLRKNDRKKR-NH2) [Sample 2]	9.07 log10 PFU/mL and 5.95 log10 PFU/mL
MKAIIVLLMVVTSNAKKRTLRKNDRKKR-CONH2 (MKAIIVLLMVVTSNAKKRTLRKNDRKKR-NH2) [Sample 3]	9.23 log10 PFU/mL and 6.34 log10 PFU/mL
